The text below walks through data of US20030109570A1 (priority 2002, published 2003).

Each structure is given as a SMILES string.

In assay [1] the target is T1, human PPARγ receptor (Homo sapiens, UniProt P37231).
T1 construct: expressed in transfected cells; host or cells: CV-1 cells, pSG5-based Gal4-PPAR expression vector
T1 sequence (P37231 204-505): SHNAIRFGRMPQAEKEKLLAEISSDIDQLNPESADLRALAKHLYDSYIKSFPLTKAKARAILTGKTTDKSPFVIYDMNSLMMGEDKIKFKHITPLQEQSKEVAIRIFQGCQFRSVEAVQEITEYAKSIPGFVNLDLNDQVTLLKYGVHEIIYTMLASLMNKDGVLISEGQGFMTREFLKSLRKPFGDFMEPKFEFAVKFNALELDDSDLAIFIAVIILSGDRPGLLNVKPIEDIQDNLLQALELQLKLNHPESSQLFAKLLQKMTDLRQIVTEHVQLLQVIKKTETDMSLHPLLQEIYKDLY
The assay is described as follows: Luciferase assay using human PPARγ receptor (Gal4 chimera, CV-1 cells). The format is cell-based. The conditions noted are these: 24 h, luciferase activity of Pioglitazone at 1 μM = 100, read-out: PPARγ agonist activity, Relative activity. Here is the method: (§1) 1) Materials for a Luciferase Assay Using Human PPARα and γ
(§2) The entire procedure was conducted using a usual yeast one- or two-hybrid system according to a basic genetic engineering process.
(§3) pGL2-UAS5-TK-luc was prepared as a reporter plasmid having a response sequence of the Gal4 protein as an yeast basic transcription factor and a luciferase gene (luc) under the control by an enhancer sequence with five times repeats of UAS and the thymidine kinase (TK) promoter promoter.
(§4) A vector expressing a chimera receptor in which a ligand binding region in an intranuclear receptor human PPARα or γ receptor was fused to the […] terminus in the DNA binding region of the yeast Gal4 protein was prepared as follows. Specifically, using pSG5 (trade name, STRATAGENE, Catalogue No.216201) as a basic expression vector, the structural gene was replaced with that of a chimera receptor.
(§5) A DNA encoding the ligand binding region in human PPARα or γ receptor was inserted downstream of the DNA binding region in the Gal4 protein, i.e., the DNA encoding the 1st to 147th amino acid sequence such that the frames were aligned and it was inserted downstream of the promoter-enhancer region in pSG5 (trade name). For localizing the expressed chimera receptor in the nucleus, the DNA sequence was constructed such that a nuclear transition signal derived from SV-40T antigen, Ala Pro Lys Lys Lys Arg Lys Val Gly (SEQ ID NO. 4) was present at the amino terminus of the ligand binding region in the human PPARα or γ receptor.
(§6) As the structural gene segment for a ligand binding region in the human PPARα or γ receptor, a DNA was used which encoded:
human PPARγ ligand binding region: Ser^176-Tyr^478
which correspond to Ser^204-Tyr^506 in the human PPARγ 1 receptor and PPARγ 2 receptor and thus have the same base sequence, from structural comparison for human PPAR receptors described in R. Mukherjee et al., J. Steroid Biochem. Molec. Biol., Vol. 51, p.157 (1994); M. E. Green et al. (Gene Expression., Vol.4, p.281 (1995). For monitoring an effect on basic transcription, was also prepared an expression vector having encoding only the DNA binding region of the Gal4 protein lacking the PPAR ligand binding region, the 1st to 147th amino acid sequence and a nuclear transition signal for SV-40T-antigen.
(§7) 2) Luciferase Assay Using the Human PPARα or γ Receptor
(§8) CV-1 cells used as a host cell were cultured as usual. Specifically, a fetal calf serum (Intergen, Catalogue No.1020-90) was added to the Dulbecco modified eagle medium (DMEM) to the final concentration of 10%, and penicillin G and streptomycin sulfate were then added to the final concentrations of 50 U/mL and 50 μg/mL, respectively. In the medium, the cells were cultured at 37° C. under 5% carbon dioxide.
(§9) The day before transfection, the cells were inoculated in a 24 well plate at 1.5×10^5 cells/well in advance. LipofectAMINE (trade name, GIBCOBRL, Catalogue No.26300-61) was used for transfection. Specifically, for each well, in 40 μL of a serum-free medium Opti-MEM (trade name, GIBCOBRL, Catalogue No.31985-070) were well mixed 100 ng of a reporter plasmid, 12.5 ng of Gal4-PPAR expression vector, 200 ng of pRL-TK (trade name) as an internal control, 287.5 ng of pGEM-3Zf(+) (trade name, PROMEGA, Catalogue No. P2271) as a carrier DNA and 2.6 μL of LipofectAMINE (trade name, GIBCOBRL, Catalogue No.26300-61). To the mixture was added 170.2 μL of Opti-MEM (trade name). After washing with PBS (Phosphate Buffered Saline) and Opti-MEM (trade name), the mixture was added to the above cells. After culturing at 37° C. for 16 hours, the medium was replaced with DMEM-10% charcoal-[…] treated fetal calf serum (trade name, HyClone, Catalogue No. SH30068.03) containing a compound of this invention. After culturing at 37° C. for 24 hours, the cells were lysed and determined for its luciferase activity as usual.

The target of assay [2] is T2, human PPARα receptor (Homo sapiens, UniProt Q07869).
T2 construct: and; expressed in transfected cells; host or cells: CV-1 cells, pSG5-based Gal4-PPAR expression vector
T2 sequence (Q07869 167-468): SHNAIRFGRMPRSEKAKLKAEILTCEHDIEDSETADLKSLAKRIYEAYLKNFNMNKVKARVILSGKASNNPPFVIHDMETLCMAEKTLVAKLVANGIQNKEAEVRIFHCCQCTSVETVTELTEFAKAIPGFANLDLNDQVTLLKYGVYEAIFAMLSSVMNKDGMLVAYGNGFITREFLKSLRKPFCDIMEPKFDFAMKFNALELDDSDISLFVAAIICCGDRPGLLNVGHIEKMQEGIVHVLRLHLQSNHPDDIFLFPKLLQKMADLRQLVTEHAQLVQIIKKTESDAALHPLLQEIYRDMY
The experiment in a line: Luciferase assay using human PPARα receptor (Gal4 chimera, CV-1 cells). The following applies: 24 h, luciferase activity of Wy-14.643 at 10 μM = 100, read-out: PPARα agonist activity, Relative activity. The format is cell-based. Here is the method:
as §1, §2, §3, §4, §5, §6
human PPARα ligand binding region: Ser^167-Tyr^468; and
as §7, §8, §9

Assay [3] relates to KKAy mouse. The experiment in a line: Hypoglycemic and hypolipidemic effects using a diabetic model mouse (KKAy mouse). Format: in vivo. The conditions noted are these: KKAy mice, 30 mg/kg orally once daily for four days, fifth day vs first day; for Reduction rate of a free fatty acid level / Reduction rate of a triglyceride level: plasma. The procedure:
Type II diabetic mice “KK-Ay/Ta Jci” (male, Nippon Clare, 10 weeks, five per a group) in each cage were used. In the morning of the initial day of the study, blood was collected from an orbital vein. A glucose level was determined using a new blood sugar test (Boehringer Mannheim) for a centrifuge supernatant after deproteination of the blood with perchloric acid. The blood was centrifuged to prepare a plasma. Then, a triglyceride and a free fatty acid levels in the plasma were determined using Triglyceride E-Test Wako and NEFA-C Test Wako (Wako Pure Chemicals, Inc.), respectively. […] On the fifth day of the study, a blood was collected for determination of a blood glucose level, a triglyceride level and a free fatty acid level. A group to which only 0.5% aqueous CMC solution was administered was used as a control group while a group to which pioglytazone was administered was used as a positive control. A reduction rate for a parameter in each group was calculated using the following equation.

Turning to `COc1cc2sc(CC(C)(Oc3ccc(C(C)C)cc3)C(=O)O)cc2c(Cl)c1OC` (stereo not drawn) [Example 4, 3-(4-chloro-5,6-dimethoxybenzothiophen-2-yl)-2-(4-isopropylphenoxy)-2-methylpropanoic Acid], the Emax at 0.1 µM stood at 8% in assay [1] (0.1 μM) and 0.3% in assay [2] (0.1 μM). The Emax at 1 µM in assay [1] (1 μM) turned out to be 68%; in assay [2] (1 μM), 2.9%. The Emax at 10 µM was found to be 69.9% in assay [1] (10 μM) and 249% in assay [2] (10 μM). Besides, the “Reduction rate of a blood glucose level” value in assay [3] was 58%. Besides, in assay [3], the “Reduction rate of a free fatty acid level” value is on record as 69%. Moreover, in assay [3], the “Reduction rate of a triglyceride level” value stood at 85%.

For `CCc1ccc(CCOc2ccc(CC3SC(=O)NC3=O)cc2)nc1` (stereo not drawn) [Pioglytazone, Pioglitazone, reference compound], in assay [3], the “Reduction rate of a blood glucose level” value came to 28%, the “Reduction rate of a free fatty acid level” value is 49% and the “Reduction rate of a triglyceride level” value worked out at 60%.
